From patent US20230069886A1, “AROMATIC SULPHONAMIDES DERIVATIVES THAT INHIBITS PDI A3, THEIR SYNTHESIS AND USE” (Uniwersytet Jagiellonski, priority 2020, published 2023)

Experiments:
[1] = tested on: MCF-7; assay: MTT antiproliferative assay, 48 h, MCF-7; format: cell-based, human; conditions: 48-hour exposition, read-out: Cytotoxicity, IC50, μM MCF-7
Experimental: (§1) Anticancer activity of compounds of invention, PDI A3-inhibitors has been tested in vitro in classical antiproliferative assay in various cancer cells lines. Monolayer tumor cell lines MDA-MB-231 (human mammary breast adenocarcinoma), MCF-7 (human breast adenocarcinoma, estrogen-positive), HT-1080 (human fibrosarcoma) and Caco-2 (human colon adenocarcinoma) were cultured in standard medium DMEM (Dulbecco's modified Eagle's medium) (“Sigma”) supplemented with 10% foetal bovine serum (“Sigma”). About 2000-4000 cells per well (depending on line nature) were placed in 96-well plates and after 24 h compounds were added to the wells. Untreated cells were used as a control. The plates were incubated for 48 h, 37° C., 5% CO2. The number of surviving cells was determined using 3-(4,5-dimethylthiazol-2-yl)-2,5-diphenyltetrazolinium bromide (MTT). MTT-test: after incubating culture medium was removed and 200 μL fresh medium with 20 μL MTT (2 mg/mL in HBSS) was added in each well of the plate. After incubation (3 hr., 37° C., 5% CO2), the medium with MTT was removed and 200 μL DMSO were added at once to each sample. The samples were tested at 540 nm on Thermo Scientific Multiskan EX microplate photometer. The half-maximal inhibitory concentration (IC50) of each compound was calculated using Graph Pad Prism® 3.0.

[2] = tested on: HT-1080; assay: MTT antiproliferative assay, 48 h, HT-1080; format: cell-based, human; conditions: 48-hour exposition, read-out: Cytotoxicity, IC50, μM HT-1080
Experimental: as §1

[3] = tested on: CaCo-2; assay: MTT antiproliferative assay, 48 h, Caco-2; format: cell-based, human; conditions: 48-hour exposition, read-out: Cytotoxicity, IC50, μM CaCo-2
Experimental: as §1

[4] = target: T1, PDI A3 (Homo sapiens, UniProt P30101); assay: PDI A3 inhibition, insulin turbidimetric assay; format: biochemical; conditions: 10 ug/ml PDI A3, incubated 60 min at 37° C., turbidity at 650 nm; read-out: Inhibition of PDI A3 (EC 50)
T1 construct: purchased Mybiosource; host or cells: E. coli
T1 sequence (P30101 25-505): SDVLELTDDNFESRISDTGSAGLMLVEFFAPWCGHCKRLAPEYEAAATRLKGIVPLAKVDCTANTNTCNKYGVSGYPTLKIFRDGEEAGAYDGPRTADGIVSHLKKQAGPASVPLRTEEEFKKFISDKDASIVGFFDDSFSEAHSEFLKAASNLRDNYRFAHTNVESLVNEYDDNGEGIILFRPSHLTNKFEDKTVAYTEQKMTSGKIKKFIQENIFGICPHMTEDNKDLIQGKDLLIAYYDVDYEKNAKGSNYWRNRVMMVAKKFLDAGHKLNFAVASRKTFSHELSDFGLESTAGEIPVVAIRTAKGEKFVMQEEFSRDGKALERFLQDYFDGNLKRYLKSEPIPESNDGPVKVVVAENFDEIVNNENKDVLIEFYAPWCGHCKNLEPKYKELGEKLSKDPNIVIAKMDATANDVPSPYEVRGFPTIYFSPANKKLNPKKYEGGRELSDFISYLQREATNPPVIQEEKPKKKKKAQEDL
Experimental: The inhibitory effects compounds of invention on activity of PDIA3 was assess based on the insulin turbidimetric assay. Enzymatic activity of PDIA3 was confirmed by measuring the turbidity increase at 650 nm due to insulin reduction. The assay mixture was prepared by addition 10 ug/ml PDI A3 (E. coli recombinant protein; Mybiosource), […] phosphate buffer (pH7.6), 1 mM EDTA, 0.087 mM DTT and with or without tested compound and was incubated for 60 min, at 37° C. Reaction was started by addition of insulin and DTT. Final concentration of insulin and DTT in assay mixture were 0.15 mMv and 0.174 mMv, respectively. Turbidity was detected at 650 nm against reference samples without PDJs. The measurements were performed at 650 nm using 120-s recordings.

[5] = tested on: MDA-MB-231; assay: MTT antiproliferative assay, 48 h, MDA-MB-231; format: cell-based, human; conditions: 48-hour exposition, read-out: Cytotoxicity, IC50, μM MDA-MB-231
Experimental: as §1

## Methyl 1-(4-propylphenyl)sulfonylaziridine-2-carboxylate [Compound C-3304]
[1]
  IC50: 49 ± 1 µM
[2]
  IC50: 17 ± 3 µM
[3]
  IC50: 10 ± 1 µM
[4]
  EC50: 190 µM
[5]
  IC50: 13 ± 1 µM
